According to patent publication US12070455B2, “Thienopyrrole compounds” (Gilead Sciences, Inc., priority 2021, dated 2024):

How the values were obtained:
[1] = molecular target: T1, TLR8 (Homo sapiens, UniProt Q9NR97); assay: TLR8 human peripheral blood mononuclear cell (PBMC) cell-based assay; settings: human PBMCs; 1 h with antagonist, then TLR8 agonist Compound A 800 nM for 6 h; cytokines (TNFa and IL12p40) in supernatant; read-out: TLR-8 EC50
T1 construct: Human peripheral blood mononuclear cells (PBMCs) consist of lymphocytes, monocytes and dendritic cells that express TLR7, TLR8 and TLR9; endogenous in cells; host or cells: cryopreserved human PBMCs from healthy donors
T1 sequence (Q9NR97 27-1041): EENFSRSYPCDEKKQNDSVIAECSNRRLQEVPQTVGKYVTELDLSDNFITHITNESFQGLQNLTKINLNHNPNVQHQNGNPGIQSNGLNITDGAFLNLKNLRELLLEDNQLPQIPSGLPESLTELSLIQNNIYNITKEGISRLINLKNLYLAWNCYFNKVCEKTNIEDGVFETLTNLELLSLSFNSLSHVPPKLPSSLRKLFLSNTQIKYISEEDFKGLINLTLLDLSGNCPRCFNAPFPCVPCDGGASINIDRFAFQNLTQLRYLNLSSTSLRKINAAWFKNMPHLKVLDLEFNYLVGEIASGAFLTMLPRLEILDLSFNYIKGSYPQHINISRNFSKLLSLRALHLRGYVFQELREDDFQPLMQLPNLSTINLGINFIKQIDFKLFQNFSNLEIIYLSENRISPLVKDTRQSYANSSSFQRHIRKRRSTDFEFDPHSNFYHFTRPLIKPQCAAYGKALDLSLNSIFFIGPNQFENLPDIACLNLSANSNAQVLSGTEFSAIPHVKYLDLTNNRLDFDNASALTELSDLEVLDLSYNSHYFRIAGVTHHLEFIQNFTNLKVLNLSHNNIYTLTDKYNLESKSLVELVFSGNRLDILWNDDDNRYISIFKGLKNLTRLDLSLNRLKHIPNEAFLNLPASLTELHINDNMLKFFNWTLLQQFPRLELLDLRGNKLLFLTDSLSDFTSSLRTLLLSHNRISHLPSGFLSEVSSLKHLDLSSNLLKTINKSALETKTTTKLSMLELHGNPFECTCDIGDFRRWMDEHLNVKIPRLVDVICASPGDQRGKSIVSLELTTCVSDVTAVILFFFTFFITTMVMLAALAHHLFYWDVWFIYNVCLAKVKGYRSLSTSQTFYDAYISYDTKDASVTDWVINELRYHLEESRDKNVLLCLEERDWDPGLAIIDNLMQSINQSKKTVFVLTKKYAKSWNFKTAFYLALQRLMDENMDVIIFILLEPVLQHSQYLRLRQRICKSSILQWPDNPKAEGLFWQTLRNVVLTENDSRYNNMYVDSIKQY
Experimental: TLR8 Human Peripheral Blood Mononuclear Cell (PBMC) Cell-Based Assay
Cryopreserved human PBMCs from healthy donors were thawed and resuspended in RPMI-1640 media with L-glutamine (Corning) supplemented with 10% Fetal Bovine Serum (Hyclone) and 1× Penicillin-Streptomycin (Corning). After counting, the cell density was adjusted to 2 million cells/ml and incubated for 1 hour at 37° C., 5% CO2 for recovery. Following the recovery, the cells were plated by adding 50 μl per well (100,000 cells) to 384-well cell culture plates (Greiner) containing 250 nl of test antagonists in 100% DMSO per well, in a 10 points dose response in quadruplicates. PBMCs were incubated in the presence of antagonists for one hour at 37° C., 5% CO2 before being stimulated with TLR8 agonist. Compound A (Gilead Sciences, U.S. Pat. No. 10,285,990) was used as the TLR8 agonist at a final concentration of 800 nM. PBMCs were incubated in the presence of antagonist and the TLR8 agonist for an additional 6 hours at 37° C., 5% CO2. At the end of the incubation, the cell culture plates were centrifuged at 500 g for 5 min, and the cell culture supernatant was collected. The level of cytokines (TNFa and IL12p40) in the supernatant was measured by electrochemiluminescence immunoassays (Mesoscale Discovery) following manufacturer's recommended protocols. The level of cytokine measured was plotted against the antagonist concentration and fitted to a sigmoidal function to determine the EC50, which are shown below in Table 6.

[2] = molecular target: T2, TLR7 (Homo sapiens, UniProt Q9NYK1); assay: TLR7 human peripheral blood mononuclear cell (PBMC) cell-based assay; settings: human PBMCs; 1 h with test antagonist, then TLR7 agonist GS-986 400 nM for 6 h; cytokines (IL-6 and IFNα) in supernatant; read-out: TLR-7 EC50
T2 construct: Human peripheral blood mononuclear cells (PBMCs) consist of lymphocytes, monocytes and dendritic cells that express TLR7, TLR8 and TLR9; endogenous in cells; host or cells: cryopreserved human PBMCs from healthy donors
T2 sequence (Q9NYK1 27-1049): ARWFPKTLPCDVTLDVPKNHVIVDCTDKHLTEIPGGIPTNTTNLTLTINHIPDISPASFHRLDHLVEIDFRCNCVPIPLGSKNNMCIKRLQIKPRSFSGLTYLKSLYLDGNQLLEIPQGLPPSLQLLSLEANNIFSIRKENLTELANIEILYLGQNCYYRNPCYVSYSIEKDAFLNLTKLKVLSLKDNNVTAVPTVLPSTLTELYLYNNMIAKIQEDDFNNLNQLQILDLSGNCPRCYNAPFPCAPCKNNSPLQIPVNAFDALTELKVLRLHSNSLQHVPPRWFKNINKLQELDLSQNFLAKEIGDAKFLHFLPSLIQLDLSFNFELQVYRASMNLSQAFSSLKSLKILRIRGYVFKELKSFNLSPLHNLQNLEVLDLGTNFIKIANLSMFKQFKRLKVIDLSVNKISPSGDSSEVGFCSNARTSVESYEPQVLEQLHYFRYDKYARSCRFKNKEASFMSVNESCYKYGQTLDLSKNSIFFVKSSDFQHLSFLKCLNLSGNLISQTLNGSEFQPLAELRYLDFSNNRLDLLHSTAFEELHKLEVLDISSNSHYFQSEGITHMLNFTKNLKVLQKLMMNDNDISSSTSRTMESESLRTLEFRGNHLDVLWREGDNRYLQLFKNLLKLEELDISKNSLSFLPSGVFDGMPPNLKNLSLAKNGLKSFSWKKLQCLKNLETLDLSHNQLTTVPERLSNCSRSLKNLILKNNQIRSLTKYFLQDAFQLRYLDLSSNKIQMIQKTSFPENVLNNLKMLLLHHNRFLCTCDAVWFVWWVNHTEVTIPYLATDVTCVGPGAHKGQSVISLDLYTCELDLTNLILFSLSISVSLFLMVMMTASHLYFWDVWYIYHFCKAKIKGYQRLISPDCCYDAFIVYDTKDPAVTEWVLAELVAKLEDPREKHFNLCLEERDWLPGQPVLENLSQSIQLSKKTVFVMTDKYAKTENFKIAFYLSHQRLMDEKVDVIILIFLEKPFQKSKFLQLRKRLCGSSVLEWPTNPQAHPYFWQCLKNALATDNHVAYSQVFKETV
Description: TLR7/9 Human Peripheral Blood Mononuclear Cell (PBMC) Cell-Based Assay
Human peripheral blood mononuclear cells (PBMCs) consist of lymphocytes, monocytes and dendritic cells that express TLR7, TLR8 and TLR9. These cells respond to TLR7, TLR8 and TLR9 ligand stimulation and produce cytokines and chemokines in vitro and in vivo. Human PBMCs are therefore suitable to be used in a cell-based assay to assess the in vitro potency of a TLR 7, 8, and/or 9 antagonist.
Cryopreserved human PBMCs from healthy donors were thawed and resuspended in RPMI-1640 media with L-glutamine (Corning) supplemented with 10% Fetal Bovine Serum (Hyclone) and 1× Penicillin-Streptomycin (Corning). After counting, the cell density was adjusted to 2 million cells/ml and incubated for 1 hour at 37° C., 5% CO2 for recovery. Following the recovery, the cells were plated by adding 50 μl per well (100,000 cells) to 384-well cell culture plates (Greiner) containing 250 nl of test antagonists in 100% DMSO per well, in a 10 points dose response in quadruplicates. PBMCs were incubated in the presence of test antagonists for one hour at 37° C., 5% CO2 before being stimulated with a TLR7 or TLR9 agonist. GS-986 (Gilead Sciences) was used as the TLR7 agonist at a final concentration of 400 nM. ODN-2216 (InvivoGen) was used as the TLR9 agonist at a final concentration of 3 μM. PBMCs were incubated in the presence of the test antagonist and the TLR7 (or TLR9) agonist for an additional 6 hours at 37° C., 5% CO2. At the end of the incubation, the cell culture plates were centrifuged at 500 g for 5 min, and the cell culture supernatant was collected. The level of cytokines (IL-6 and IFNα) in the supernatant was measured by electrochemiluminescence immunoassays (Mesoscale Discovery) following manufacturer's recommended protocols. The level of cytokine measured was plotted against the test antagonist concentration and fitted to a sigmoidal function to determine the EC50, which are shown below in Table 6.

Structure (SMILES) | EC50 [1] | EC50 [2]
CO[C@@H]1CN[C@@H](C(=O)N2CCC(c3sc4[nH]c(-c5cn6ncnc6c6c5CCC6)c(C(C)C)c4c3C)CC2)C1 [Example 19] | 5.42 nM | 0.14 nM
Cc1c(C2CCN(C(=O)C3(N4CCOCC4)CC3)CC2)sc2[nH]c(-c3cn4ncnc4c4c3CCC4)c(C(C)C)c12 [Example 20] | 22.3 nM | 4.63 nM
Cc1c(-c2ccc(N3CCNCC3)cc2)sc2[nH]c(-c3cn4ncnc4c4c3CCC4)c(C(C)C)c12 [Example 21, 5-(8,9-dihydro-7H-cyclopenta[c][1,2,4]triazolo[1,5-a]pyridin-6-yl)-4-isopropyl-3-methyl-2-(4-(piperazin-1-yl)phenyl)-6H-thieno[2,3-b]pyrrole] | 1.32 nM | 0.51 nM
Cc1c(-c2ccc(N3CCNCC3)nc2)sc2[nH]c(-c3cn4ncnc4c4c3CCC4)c(C(C)C)c12 [Example 22] | 0.66 nM | 0.23 nM
Cc1c(-c2cn(C3CCNCC3)nn2)sc2[nH]c(-c3cn4ncnc4c4c3CCC4)c(C(C)C)c12 [Example 24] | 0.21 nM | 0.94 nM
Cc1c(C2CCN(C(=O)[C@H]3C[C@@]4(CNCCO4)C3)CC2)sc2[nH]c(-c3cn4ncnc4c4c3CCC4)c(C(C)C)c12 [Example 25] | 1.38 nM | 0.05 nM
Cc1c(C2CCC(N3CC4(CCNC4=O)C3)CC2)sc2[nH]c(-c3cn4ncnc4c4c3CCC4)c(C(C)C)c12 (stereo not drawn) [Example 27] | 2.55 nM | 0.26 nM
Cc1c(C2CCC(N3CC(C)(O)C3)CC2)sc2[nH]c(-c3cn4ncnc4c4c3CCC4)c(C(C)C)c12 (stereo not drawn) [Example 28] | 1.57 nM | 0.15 nM
Cc1c(C2CCC(N3CC4(COC4)C3)CC2)sc2[nH]c(-c3cn4ncnc4c4c3CCC4)c(C(C)C)c12 (stereo not drawn) [Example 29] | 1 nM | 0.1 nM
Cc1c(C2CCC(N3CC4(CCN(C)C4=O)C3)CC2)sc2[nH]c(-c3cn4ncnc4c4c3CCC4)c(C(C)C)c12 (stereo not drawn) [Example 30] | 1.29 nM | 0.86 nM
Cc1c(C2CCN(C(=O)[C@H]3C[C@@H](O)CN3)CC2)sc2[nH]c(-c3cn4ncnc4c4c3CCC4)c(C(C)C)c12 [Example 31] | 6.38 nM | 1.33 nM
Cc1c(C2CCN(C(=O)[C@H]3C[C@H](O)CN3)CC2)sc2[nH]c(-c3cn4ncnc4c4c3CCC4)c(C(C)C)c12 [Example 32] | 11.3 nM | 1.5 nM
CC(C)c1c(-c2cn3ncnc3c3c2CCC3)[nH]c2sc(C3CCN(C(=O)[C@H]4COCCN4)CC3)cc12 [Example 33] | 7.57 nM | 2.33 nM
CC(C)c1c(-c2cn3ncnc3c3c2CCC3)[nH]c2sc(C3CCN(CC(N)=O)CC3)cc12 [Example 34] | 1.57 nM | 0.58 nM
Cc1c(C2CCNCC2)sc2[nH]c(-c3cn4ncnc4c4c3CCO4)c(C(C)C)c12 [Example 35] | 7.88 nM | 0.33 nM
Cc1c(C2CCN(CC(N)=O)CC2)sc2[nH]c(-c3cn4ncnc4c4c3CCO4)c(C(C)C)c12 [Example 36] | 27.6 nM | 4.5 nM
Cc1c(C2CCN(C(=O)[C@H]3COCCN3)CC2)sc2[nH]c(-c3cn4ncnc4c4c3CCO4)c(C(C)C)c12 [Example 37] | 24.5 nM | 2.95 nM
Cc1c([C@@H]2C[C@@H]3C[C@H]2CN3CC(N)=O)sc2[nH]c(-c3cn4ncnc4c4c3CCO4)c(C(C)C)c12 [Example 38] | 0.81 nM | 0.58 nM
Cc1c(C2CCN(C(=O)[C@@H]3C[C@H](C(F)(F)F)CN3)CC2)sc2[nH]c(-c3cn4ncnc4c4c3CCC4)c(C(C)C)c12 [Example 39] | 5.01 nM | 3.4 nM
CC(C)c1c(-c2cn3ncnc3c3c2CCC3)[nH]c2sc(C(=O)N(C)C3CCNCC3)cc12 [Example 41, 5-(8,9-dihydro-7H-cyclopenta[c][1,2,4]triazolo[1,5-a]pyridin-6-yl)-4-isopropyl-N-methyl-N-(piperidin-4-yl)-6H-thieno[2,3-b]pyrrole-2-carboxamide] | 2.56 nM | 0.49 nM
CC(C)c1c(-c2cn3ncnc3c3c2CCC3)[nH]c2sc(C(=O)N3CCNCC3)cc12 [Example 42] | 0.69 nM | 0.78 nM
